The target in one experiment is T1, OX1R (Homo sapiens, UniProt O43613, A280G).
T1 construct: HEK cells expressing recombinant native OX1R (HEK-OX1R); expressed in transfected cells; host or cells: HEK cells (HEK-OX1R)
T1 sequence (O43613 1-425 A280G): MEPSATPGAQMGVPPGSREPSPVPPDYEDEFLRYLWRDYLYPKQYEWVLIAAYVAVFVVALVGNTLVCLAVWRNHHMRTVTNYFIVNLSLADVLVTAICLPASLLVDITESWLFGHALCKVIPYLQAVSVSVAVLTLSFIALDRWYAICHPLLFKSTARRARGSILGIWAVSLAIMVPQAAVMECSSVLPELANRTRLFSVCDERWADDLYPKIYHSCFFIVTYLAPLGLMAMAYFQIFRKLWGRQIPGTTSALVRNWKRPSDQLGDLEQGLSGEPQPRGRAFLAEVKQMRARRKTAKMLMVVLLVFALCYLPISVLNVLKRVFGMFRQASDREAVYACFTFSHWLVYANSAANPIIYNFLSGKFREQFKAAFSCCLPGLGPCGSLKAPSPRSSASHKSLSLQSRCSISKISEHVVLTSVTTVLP
The experiment in a line: Ca2+ mobilization assay in HEK-OX1R cells (FluoForte). The experiment is classed as cell-based. Particulars: 1 μM. (Calcium flux is commonly read through the fluorescence of an indicator in the cells.)

The test system of the next experiment is HEK-OX1R cells. The experiment in a line: Cells growth determination, HEK-OX1R cells. The conditions noted are these: 48 hr; OxA 0.1 μM, SB408124 increasing concentrations. The class given is cell-based. Here is the method: FIG. 12: Determination of the inhibition of cellular growth of HEK-OX1R cells and colon adenocarcinoma cells (HT-29) induced by 0.1 μM of OxA or various concentrations of SB408124 antagonist. HEK-OX1R cells (black column) and HT-29 cells (white column) were incubated with 0.1 μM of OxA and indicated increasing concentration of SB408124, and cells were counted after 48 hr incubation. Results are expressed as the percentage of total viable cells.
Cells growth determination and apoptosis assay: HEK-OX1R cells or colon adenocarcinoma HT-29 cells were seeded, grown and maintained at 37° C. in a humidified 5% CO2/air incubator. After 24 hr culture, cells were treated with or without Orexin-A peptide or SB408124 antagonist, previously dissolved in DMSO, to be tested at the concentration indicated in the figure legends. After 48 hr of treatment, adherent cells were harvested by Trip1E (Life Technologies, Saint Aubin, France) and manually counted. Apoptosis was determined using the Guava PCA system and the Guava nexin kit.

In experiment [1] the test system is cerulein-induced chronic pancreatitis mice. The experiment in a line: Chronic pancreatitis mice model induced by cerulein. The class given is in vivo. From the text: FIG. 9. Pancreatic lymphocyte infiltration determined by immunostaining of CD45+ cells. Values were expressed as percentage of stained surface. **, p<0.01
FIG. 10: Amylase activity in blood samples of control mice, cerulein-induced mice and cerulein-induced mice treated with OxA. *, p<0.05; ***, p<0.001 and NS, non significant.
We have investigated the effect of orexin A (OxA) on chronic pancreatitis mice model induced by supraphysiologic doses of cerulein (3 intraperitoneal injections/week at 100 μg/kg). […] In mice treated by OxA (2 intraperitoneal injections/week at 1.40 μmol/Kg) the lesions induced by cerulein improved. OxA-treated mice had lower number of acino-ductal metaplasia.

Results on one substance are retold here after US20190151304A1, “METHODS AND PHARMACEUTICAL COMPOSITIONS FOR THE TREATMENT OF AUTOIMMUNE INFLAMMATORY” (INSERM (INSTITUT NATIONAL DE LA SANTÉ ET DE LA RECHERCJAE …, priority 2016, published 2019).

No end group written: not given here.

With “OxA: neuropeptide, endogenous ligand of OX1R and OX2R, with two disulphide bridges (QPLPDCCRQKTCSCRLYELLHGAGNHAAGILTL; disulfide (positions not given here); ends not checked; also: two disulphide bridges, pairing not given here; UniProt O43612 34-66, looked up)”, in the experiment with OX1R, the “Ca2+ mobilization induced in HEK-OX1R cells” value is “large and transient”. In addition, in the experiment with HEK-OX1R cells, the “Inhibition of cellular growth of HEK-OX1R cells” value is recorded as “strong inhibition”. In addition, the “Pancreatic lymphocyte infiltration (anti-CD45 immunohistochemistry)” value in experiment [1] (OxA 1.40 μmol/Kg, quantitative imaging analysis, 18% in OxA-untreated mice) is listed as 6 % of the pancreatic surface. In addition, the “Pancreatic fibrosis on Picrosirius staining” value in experiment [1] (OxA 1.40 μmol/Kg, quantitative imaging analysis, 40% in OxA-untreated mice) is 12 % of the pancreatic surface. For the same substance, the “Number of acino-ductal metaplasia” value in experiment [1] (OxA 2 intraperitoneal injections/week at 1.40 μmol/Kg) is “lower number”. Moreover, the “Lesions induced by cerulein (histological analysis of the pancreas)” value in experiment [1] (OxA 2 intraperitoneal injections/week at 1.40 μmol/Kg, 3 weeks of cerulein) was “improved”. The “Amylase activity in blood samples” value in experiment [1] (cerulein-induced mice treated with OxA) was “significantly reduced”.
